Reference: the supplement of paper PMC10949913
Counter-ions that a name gives are not always drawn.

Tests used:
NCI-H295R [1] = assay: ExcessHSA synergy score with TAK-243; higher = less synergy (negative = synergistic); details: combined with: TAK-243 (MLN-7243) matrix, 9-point 1:2 dilution
Protocol: (§1)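 Each drug was tested at 9 points with 1:2 dilution; viability was read by CellTiter-Glo as in the single-agent screen. Synergy is scored as ExcessHSA (sum of excess over highest single agent; negative = synergy) and the Beta interaction parameter (<1 synergy).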

CU-ACC1 [2] = assay: as above; details: combined with: TAK-243 (MLN-7243) matrix, 9-point 1:2 dilution
Protocol: as §1

CU-ACC2 [3] = assay: area under concentration-response curve (viability) (AUC (a.u.)); higher = less active; details: 48 h
Procedure, shortened: (§2)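 Library compounds were dispensed at 11 concentrations (23 nL each) onto three adrenocortical carcinoma cell lines in 1,536-well plates. Luminescence was recorded after 48 h using CellTiter-Glo, and signals were normalised per plate to vehicle and empty-well controls. Fitted concentration-response curves of inhibitory or non-responding classes only supplied the AC50 and area under the curve.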

NCI-H295R [4] = assay: as above; details: 48 h
Procedure, shortened: as §2

CU-ACC1 [5] = assay: as above; details: 48 h
Procedure, shortened: as §2

CU-ACC2 [6] = assay: AC50 viability; higher = less potent; details: 48 h
Procedure, shortened: as §2

NCI-H295R [7] = assay: AC50 viability; higher = less potent; details: 48 h
Procedure, shortened: as §2

CU-ACC1 [8] = assay: AC50 viability; higher = less potent; details: 48 h
Procedure, shortened: as §2

SMILES | ExcessHSA synergy score with TAK-243 (NCI-H295R [1]) | ExcessHSA synergy score with TAK-243 (CU-ACC1 [2]) | other results
C/C=C(/C)C(=O)O[C@H]1C(C)=C2[C@H]([C@@H]1OC(=O)CCCCCCC)[C@@](C)(OC(C)=O)C[C@H](OC(=O)CCC)[C@@]1(O)[C@H]2OC(=O)[C@@]1(C)O [Thapsigargin] | -409 | -443 | –
Nc1ncnc2c1ncn2C(C=O)OC(C=O)CO (stereo not drawn) [Adenosine Dialdehyde] | 712 | 349 | –
COC1CCC(n2c([C@@H]3CCCC(=O)N3c3ccc(F)c(F)c3)nc3cc(-c4c(C)noc4C)ccc32)CC1 (stereo partly drawn) [CBP/p300-IN-4] | -244 | -96.9 | –
CS(=O)(=O)c1ccc(Oc2cc(F)cc(C#N)c2)c2c1[C@H](O)[C@H](F)[C@@H]2F [PT-2977] | 801 | 217 | –
O=C(O)CNC(=O)c1ncc(-c2cccc(Cl)c2)cc1O | 289 | -199 | –
NC(=O)c1c(NC(=O)COCc2cc(-c3cccs3)on2)sc2c1CCCC2 | 122 | 37.9 | –
C=CCNc1nc(N)c(C(=O)c2ccc(F)s2)s1 [TT-10] | 922 | 584 | –
C[C@@H]1OCC2(CCN(c3cnc(Sc4ccnc(N)c4Cl)c(N)n3)CC2)[C@@H]1N [TNO-155] | 322 | 176 | –
Cc1cc2c(C(N)=O)cccc2n1-c1nc2c(c(NCc3ccccc3)n1)COCC2 [CB-5083] | 71.1 | -143 | –
O=c1[nH]c(CSC2CCC(O)CC2)nc2cc(OCC3CC3)cc(F)c12 (stereo not drawn) | 1170 | 650 | –
O=C(NCc1cc(F)cc(F)c1)[C@@]1(O)CCN(c2ccc3[nH]ccc3c2)C1=O [M8891] | 171 | 34 | –
CC(C)C[C@H](NC(=O)[C@H](CCc1ccccc1)NC(=O)CN1CCOCC1)C(=O)N[C@@H](Cc1ccccc1)C(=O)N[C@@H](CC(C)C)C(=O)[C@@]1(C)CO1 [Carfilzomib] | -675 | -949 | –
CO/C1=C\C(C)=C\[C@@H](C)[C@@H](O)[C@@H](C)C/C(C)=C/C=C/[C@H](OC)[C@@H]([C@@H](C)[C@@H](O)[C@H](C)[C@@]2(O)C[C@@H](O)[C@H](C)[C@@H](C(C)C)O2)OC1=O [Bafilomycin A1] | -139 | 14.5 | –
CC1=C(/C=C/C(C)=C/C=C/C(C)=C\C(=O)O)C(C)(C)CCC1 [Isotretinoin] | 636 | 563 | –
COc1cc2c(cc1-c1c(C)noc1C)cc(C)c(=O)n2Cc1ccccn1 [ODM-207] | -3.62 | 182 | –
NC(=O)/C(=C/n1cnc(-c2cc(C(F)(F)F)cc(C(F)(F)F)c2)n1)c1cncnc1 [Eltanexor] | -429 | -817 | –
C[C@H]1CCN1c1nc(N2C[C@@H]3[C@@H](CC(=O)O)[C@@H]3C2)cc(C(F)(F)F)n1 [Ketohexokinase inhibitor 1] | 49.1 | -31.2 | –
CO[C@H]1CN(C)C(=O)c2cc(NC(=O)NC(C)C)ccc2OC[C@H](C)N(Cc2ccc(-c3ccccn3)cc2)C[C@@H]1C [BD98] | -760 | -213 | –
COc1cc2c(c(OC)n1)[C@]1(O)[C@H](O)[C@H](CN(C)C)[C@@H](c3ccccc3)[C@]1(c1ccc(C#N)cc1)O2 [Zotatifin] | 686 | 1170 | –
Cc1cc(Oc2ccc3nc(COc4ccc(CC5SC(=O)NC5=O)cc4)n(C)c3c2)cc(C)c1N (stereo not drawn) [Efatutazone] | -69.9 | -278 | –
Cc1[nH]c2ccccc2c1CCNCc1ccc(/C=C/C(=O)NO)cc1 [Panobinostat] | -23.3 | 181 | –
O=C(c1cc(Cc2n[nH]c(=O)c3ccccc23)ccc1F)N1CCN(C(=O)C2CC2)CC1 [Olaparib] | 859 | 468 | –
CC[C@@]1(O)C(=O)OCc2c1cc1n(c2=O)Cc2cc3c(CN(C)C)c(O)ccc3nc2-1 [Topotecan hydrochloride] | -194 | -710 | –
C=CCn1c(=O)c2cnc(Nc3ccc(N4CCN(C)CC4)cc3)nc2n1-c1cccc(C(C)(C)O)n1 [MK-1775] | 169 | 295 | –
CCS(=O)(=O)c1cc2cc(C[C@](O)(CC(C)(C)c3ccc(F)cc3C(N)=O)C(F)(F)F)[nH]c2cn1 | 885 | 653 | –

SMILES | ExcessHSA synergy score with TAK-243 (NCI-H295R [1]) | ExcessHSA synergy score with TAK-243 (CU-ACC1 [2]) | other results
CO[C@H]1C(=O)[C@]2(C)[C@@H](OC)C[C@H]3OC[C@@]3(OC(C)=O)[C@H]2[C@H](OC(=O)c2ccccc2)[C@]2(O)C[C@H](OC(=O)[C@H](O)[C@@H](NC(=O)OC(C)(C)C)c3ccccc3)C(C)=C1C2(C)C [Cabazitaxel] | -364 | 396 | –
Nc1cccc2c1CN(C1CCC(=O)NC1=O)C2=O (stereo not drawn) [Lenalidomide] | 364 | 337 | –
O=c1sn(-c2cccc3ccccc23)c(=O)n1Cc1ccccc1 [Tideglusib] | -74.2 | -108 | –
CN(C)C/C=C/C(=O)Nc1ccc(C(=O)Nc2cccc(Nc3ncc(Cl)c(-c4c[nH]c5ccccc45)n3)c2)cc1 [THZ1] | -128 | -55.8 | –
CC1(C)CCC2(CC1)N[C@@H](C(=O)N[C@@H]1CC[C@@H](C(N)=O)OC1)[C@H](c1ccnc(Cl)c1F)[C@]21C(=O)Nc2cc(Cl)ccc21 [Milademetan] | -111 | -380 | –
C=CC(=O)N1CC/C(=C\c2ccc(F)c([N+](=O)[O-])c2)C(=O)/C(=C/c2ccc(F)c([N+](=O)[O-])c2)C1 [VLX-1570] | -147 | 79.8 | –
CS(=O)(=O)c1ccc(C(=O)Nc2ccc(Cl)c(-c3ccccn3)c2)c(Cl)c1 [Vismodegib] | -5.69 | -206 | –
COc1c(OCCCN2CCOCC2)ccc2c3n(c(=NC(=O)c4cnc(N)nc4)nc12)CCN3 [Copanlisib] | 87 | 70.4 | –
Nc1ccn([C@@H]2O[C@H](CO)[C@@H](O)C2(F)F)c(=O)n1 [Gemcitabine] | 236 | -457 | –
Cc1cccc(CC(=O)N2CCc3c2ccc(-c2cn(C)c4ncnc(N)c24)c3F)n1 | 173 | -151 | –
Nc1ccn([C@@H]2O[C@H](CO)[C@@H](O)[C@@H]2O)c(=O)n1 [Cytarabine] | 789 | 457 | –
CCc1cnn2c(NCc3ccc[n+]([O-])c3)cc(N3CCCC[C@H]3CCO)nc12 [Dinaciclib] | 170 | 86.7 | –
CCOC(=O)[C@@H](N)CCC(=O)N[C@@H](CSCc1ccccc1)C(=O)N[C@@H](C(=O)OCC)c1ccccc1 [Ezatiostat] | -222 | -271 | –
O=C(c1ccc(F)c(F)c1Nc1ccc(I)cc1F)N1CC(O)([C@@H]2CCCCN2)C1 [Cobimetinib] | 819 | 450 | –
Nc1nc(OCc2ccccc2)c2nc[nH]c2n1 [O6-Benzylguanine] | 45.7 | -248 | –
O=C(CCCCCCNC(=O)c1cnc(N(c2ccccc2)c2ccccc2Cl)nc1)NO [Citarinostat (ACY-241)] | -290 | -47.7 | –
Cc1nc2ccc(F)cc2n1-c1nc(N)c(F)c(Nc2ccc(C(F)(F)F)cc2)n1 [PTC596] | -3.1 | -119 | –
CCCCCCCCc1ccc(CCC(N)(CO)CO)cc1 [Fingolimod hydrochloride] | 127 | -48.2 | –
CCN(c1cc(-c2ccc(CN3CCOCC3)cc2)cc(C(=O)NCc2c(C)cc(C)[nH]c2=O)c1C)C1CCOCC1 | – | -215 | –
Nc1ncn([C@@H]2O[C@H](CO)[C@@H](O)[C@H]2O)c(=O)n1 [5-Azacitidine] | – | 346 | –
Nc1ncn([C@@H]2O[C@H](CO)[C@@H](O)[C@H]2O)c(=O)n1 [5-Azacytidine] | 360 | – | –
Nc1nc2[nH]cc(CCc3ccc(C(=O)N[C@@H](CCC(=O)O)C(=O)O)cc3)c2c(=O)[nH]1 | – | 147 | –
Nc1nc2[nH]cc(CCc3ccc(C(=O)N[C@@H](CCC(=O)O)C(=O)O)cc3)c2c(=O)[nH]1 [Pemetrexed] | 397 | – | –
CCN(c1cc(-c2ccc(CN3CCOCC3)cc2)cc(C(=O)NCc2c(C)cc(C)[nH]c2=O)c1C)C1CCOCC1 [Tazemetostat] | -203 | – | –
O=C(/C=C\n1cnc(-c2cc(C(F)(F)F)cc(C(F)(F)F)c2)n1)NNc1cnccn1 | – | – | area under concentration-response curve (CU-ACC2 [3]): 489; area under concentration-response curve (NCI-H295R [4]): 469; area under concentration-response curve (CU-ACC1 [5]): 319; AC50 viability (CU-ACC2 [6]): 11.8 µM; AC50 viability (NCI-H295R [7]): 13.2 µM; AC50 viability (CU-ACC1 [8]): 20.9 µM
